Counter-ions that a name gives are not always drawn.
Legend:
ErbB2 V777L = ErbB2 V777L (Homo sapiens (Human), UniProt P04626, V777L); assay: ErbB enzyme assay (CisBio HTRF-KinEASE-TK), ErbB2 V777L; format: biochemical
In short: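 HTRF KinEASE-TK tyrosine-kinase read-out of substrate phosphorylation after a final 1 h at ambient temperature, from the 655/620 nm emission ratio.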

EGFR WT = EGFR WT (Homo sapiens (Human), UniProt P00533); assay: ErbB enzyme assay (CisBio HTRF-KinEASE-TK), EGFR WT; format: biochemical; settings: ATP at Km (25 μM), 1 h incubation
Chain of EGFR WT (P00533 25-1210): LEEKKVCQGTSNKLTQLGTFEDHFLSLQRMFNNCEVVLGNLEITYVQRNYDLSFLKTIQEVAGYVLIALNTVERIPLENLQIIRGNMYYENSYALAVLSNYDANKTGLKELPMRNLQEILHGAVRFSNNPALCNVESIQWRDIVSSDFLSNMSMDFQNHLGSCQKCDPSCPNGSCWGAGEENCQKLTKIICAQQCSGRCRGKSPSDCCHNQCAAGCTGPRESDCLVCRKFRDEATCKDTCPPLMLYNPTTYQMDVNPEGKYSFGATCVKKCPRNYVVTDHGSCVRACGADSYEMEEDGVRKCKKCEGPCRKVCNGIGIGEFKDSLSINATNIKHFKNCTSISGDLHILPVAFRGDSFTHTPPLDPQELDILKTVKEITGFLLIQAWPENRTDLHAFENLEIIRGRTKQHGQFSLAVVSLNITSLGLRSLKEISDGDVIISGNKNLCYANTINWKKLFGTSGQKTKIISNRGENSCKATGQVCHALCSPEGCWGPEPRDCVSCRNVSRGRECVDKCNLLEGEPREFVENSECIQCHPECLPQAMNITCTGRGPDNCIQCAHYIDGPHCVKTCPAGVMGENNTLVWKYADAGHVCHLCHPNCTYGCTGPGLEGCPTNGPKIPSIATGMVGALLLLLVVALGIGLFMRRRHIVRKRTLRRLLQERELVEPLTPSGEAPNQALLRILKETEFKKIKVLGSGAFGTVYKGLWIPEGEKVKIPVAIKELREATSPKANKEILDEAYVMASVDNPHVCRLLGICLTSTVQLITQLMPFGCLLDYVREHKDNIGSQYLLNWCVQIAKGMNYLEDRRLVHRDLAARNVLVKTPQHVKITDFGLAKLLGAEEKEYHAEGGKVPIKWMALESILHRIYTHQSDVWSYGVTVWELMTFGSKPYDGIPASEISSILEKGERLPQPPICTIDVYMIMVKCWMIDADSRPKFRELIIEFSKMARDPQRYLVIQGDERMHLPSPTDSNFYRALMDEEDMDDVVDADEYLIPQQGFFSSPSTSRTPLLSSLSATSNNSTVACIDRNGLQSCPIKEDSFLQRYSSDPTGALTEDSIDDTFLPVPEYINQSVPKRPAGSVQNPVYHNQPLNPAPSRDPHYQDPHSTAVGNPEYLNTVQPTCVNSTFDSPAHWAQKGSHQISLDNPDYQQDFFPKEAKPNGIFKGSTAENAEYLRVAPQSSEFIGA
In short: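 Potency comes from a homogeneous time-resolved fluorescence kinase format measuring tyrosine substrate phosphorylation. Reactions and detection steps each run 1 h at ambient temperature. IC50 values are interpolated from 4-parameter logistic fits of percent-of-control data.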

Chain of ErbB2 V777L (P04626 23-1255 V777L): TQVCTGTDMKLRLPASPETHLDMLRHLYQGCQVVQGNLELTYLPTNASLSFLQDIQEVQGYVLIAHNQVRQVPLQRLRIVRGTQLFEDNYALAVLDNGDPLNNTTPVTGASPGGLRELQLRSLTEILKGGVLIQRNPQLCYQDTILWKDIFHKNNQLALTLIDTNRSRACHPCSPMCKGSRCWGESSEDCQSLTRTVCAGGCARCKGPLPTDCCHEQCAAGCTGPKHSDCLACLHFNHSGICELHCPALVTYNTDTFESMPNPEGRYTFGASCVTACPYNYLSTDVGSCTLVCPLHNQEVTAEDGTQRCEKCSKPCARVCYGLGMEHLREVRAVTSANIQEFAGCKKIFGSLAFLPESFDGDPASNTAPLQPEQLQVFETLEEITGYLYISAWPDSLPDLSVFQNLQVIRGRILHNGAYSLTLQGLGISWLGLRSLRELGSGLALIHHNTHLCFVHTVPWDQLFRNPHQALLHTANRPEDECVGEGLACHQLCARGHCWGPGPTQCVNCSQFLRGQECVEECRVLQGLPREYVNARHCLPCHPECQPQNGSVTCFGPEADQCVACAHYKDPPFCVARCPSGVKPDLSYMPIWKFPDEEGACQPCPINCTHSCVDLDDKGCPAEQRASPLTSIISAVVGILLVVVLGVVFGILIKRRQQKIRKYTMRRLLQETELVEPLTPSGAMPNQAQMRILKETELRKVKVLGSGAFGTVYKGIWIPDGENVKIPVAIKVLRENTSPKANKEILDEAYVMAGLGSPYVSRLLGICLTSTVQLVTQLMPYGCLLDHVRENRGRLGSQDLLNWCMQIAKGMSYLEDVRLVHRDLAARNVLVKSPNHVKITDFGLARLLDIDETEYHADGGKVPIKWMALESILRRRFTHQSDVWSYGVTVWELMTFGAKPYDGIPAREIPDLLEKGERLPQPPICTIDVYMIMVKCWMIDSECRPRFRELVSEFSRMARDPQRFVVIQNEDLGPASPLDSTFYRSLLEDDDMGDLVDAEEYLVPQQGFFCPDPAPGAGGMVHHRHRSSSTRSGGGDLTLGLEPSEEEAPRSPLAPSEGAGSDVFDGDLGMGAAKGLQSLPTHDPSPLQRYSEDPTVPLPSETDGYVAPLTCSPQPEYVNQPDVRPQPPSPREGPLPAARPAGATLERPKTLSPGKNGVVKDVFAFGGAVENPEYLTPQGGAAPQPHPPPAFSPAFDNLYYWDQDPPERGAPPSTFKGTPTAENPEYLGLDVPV

Row | SMILES | IC50 (ErbB2 V777L) [nM] | IC50 (EGFR WT) [nM]
1 | C=C(F)C(=O)N1CCN(c2ccc3ncnc(Nc4ccc(Oc5ccc6c(c5)nnn6C)c(C)c4)c3n2)C[C@H]1COC [Compound 362, (S)-2-fluoro-1-(2-(methoxymethyl)-4-(4-((3-methyl-4-((1-methyl-1H-benzo[d][1,2,3]triazol-5-yl)oxy)phenyl)amino)pyrido[3,2-d]pyrimidin-6-yl)piperazin-1-yl)prop-2-en-1-one] | 500 to 1000 | ≥ 1000
2 | C=CC(=O)N1CCN(c2ncc3ncnc(Nc4ccc(Oc5ccc6c(c5)nnn6C)c(C)c4)c3c2F)CC1 [Compound 102, 1-(4-(5-fluoro-4-((3-methyl-4-((1-methyl-1H-benzo[d][1,2,3]triazol-5-yl)oxy)phenyl)amino)pyrido[3,4-d]pyrimidin-6-yl)piperazin-1-yl)prop-2-en-1-one] | 100 to 500 | 500 to 1000
3 | C=CC(=O)N1CC2(CC(N(C)c3ncc4ncnc(Nc5ccc(Oc6ccc7c(c6)nnn7C)c(C)c5)c4n3)C2)C1 [Compound 124, 1-(6-(methyl(8-((3-methyl-4-((1-methyl-1H-benzo[d][1,2,3]triazol-5-yl)oxy)phenyl)amino)pyrimido [5,4-d]pyrimidin-2-yl)amino)-2-azaspiro[3.3]heptan-2-yl)prop-2-en-1-one] | 50 to 100 | 100 to 500
4 | C=CC(=O)N1[C@@H]2CC[C@H]1C[C@@H](Oc1ncc3ncnc(Nc4ccc(Oc5ccc6c(c5)ncn6C)c(C)c4)c3n1)C2 [Compound 391, 1-((1R,3r,5S)-3-((8-((3-methyl-4-((1-methyl-1H-benzo[d]imidazol-5-yl)oxy)phenyl)amino)pyrimido[5,4-d]pyrimidin-2-yl)oxy)-8-azabicyclo[3.2.1]octan-8-yl)prop-2-en-1-one] | 500 to 1000 | 500 to 1000
5 | C=CC(=O)N1CCN(c2ncc3ncnc(Nc4cc(C)c(Oc5ccc6c(c5)nnn6C)cc4OC)c3n2)CC1 [Compound 12, 1-(4-(8-((2-methoxy-5-methyl-4-((1-methyl-1H-benzo[d][1,2,3]triazol-5-yl)oxy)phenyl)amino)pyrimido[5,4-d]pyrimidin-2-yl)piperazin-1-yl)prop-2-en-1-one 2,2,2-trifluoroacetate] | 100 to 500 | 100 to 500
6 | C=CC(=O)N1CCN(c2ccc3ncnc(Nc4ccc(Oc5ccc6c(c5)nnn6C(F)F)c(C)c4)c3n2)CC1(C)C [Compound 324, 1-(4-(4-((4-((1-(difluoromethyl)-1H-benzo[d][1,2,3]triazol-5-yl)oxy)-3-methylphenyl)amino)pyrido[3,2-d]pyrimidin-6-yl)-2,2-dimethylpiperazin-1-yl)prop-2-en-1-one] | 100 to 500 | 100 to 500
7 | C=CC(=O)N1CCN(c2ccc3ncnc(Nc4cc(C)c(Oc5ccc6c(c5)ncn6C(F)F)cc4OC)c3n2)CC1 [Compound 370, 1-(4-(4-((4-((1-(difluoromethyl)-1H-benzo[d]imidazol-5-yl)oxy)-2-methoxy-5-methylphenyl)amino)pyrido[3,2-d]pyrimidin-6-yl)piperazin-1-yl)prop-2-en-1-one] | 50 to 100 | 100 to 500
8 | C=CC(=O)N1CC[C@H](N(C)c2ccc3ncnc(Nc4ccc(Oc5ccc6c(c5)nnn6C)c(C)c4)c3n2)[C@@H]1C [Compound 265, 1-((2S,3S)-2-methyl-3-(methyl(4-((3-methyl-4-((1-methyl-1H-benzo[d][1,2,3]triazol-5-yl)oxy)phenyl)amino)pyrido[3,2-d]pyrimidin-6-yl)amino)pyrrolidin-1-yl)prop-2-en-1-one] | 100 to 500 | 100 to 500
9 | C=CC(=O)N1C2CCC1CN(c1ccc3ncnc(Nc4cc(C)c(Oc5ccc6c(c5)nnn6C)cc4OC)c3n1)C2 [Compound 80, 1-(3-(4-((2-methoxy-5-methyl-4-((1-methyl-1H-benzo[d][1,2,3]triazol-5-yl)oxy)phenyl)amino)pyrido[3,2-d]pyrimidin-6-yl)-3,8-diazabicyclo[3.2.1]octan-8-yl)prop-2-en-1-one] | 100 to 500 | 100 to 500
10 | C=CC(=O)N1CC2CC(C1)N2c1ccc2ncnc(Nc3ccc(Oc4ccc5c(c4)nnn5C)c(C)c3)c2n1 [Compound 96, 1-(6-(4-((3-methyl-4-((1-methyl-1H-benzo[d][1,2,3]triazol-5-yl)oxy)phenyl)amino)pyrido[3,2-d]pyrimidin-6-yl)-3,6-diazabicyclo[3.1.1]heptan-3-yl)prop-2-en-1-one] | 100 to 500 | 100 to 500
11 | C=C(F)C(=O)N1CCN(c2ncc3ncnc(Nc4ccc(Oc5ccc6c(c5)nnn6C)c(C)c4)c3n2)C[C@@H]1C(F)(F)F [Compound 231, (R)-2-fluoro-1l-(4-(8-((3-methyl-4-((1-methyl-1H-benzo[d][1,2,3]triazol-5-yl)oxy)phenyl)amino)pyrimido[5,4-d]pyrimidin-2-yl)-2-(trifluoromethyl)piperazin-1-yl)prop-2-en-1-one] | 500 to 1000 | 500 to 1000
12 | C=CC(=O)N1CCC12CCN(c1ncc3ncnc(Nc4ccc(Oc5ccc6c(c5)nnn6C)c(C)c4)c3n1)C2 (stereo not shown) [Compound 222, 1-(6-(8-((3-methyl-4-((1-methyl-1H-benzo[d][1,2,3]triazol-5-yl)oxy)phenyl)amino)pyrimido[5,4-d]pyrimidin-2-yl)-1,6-diazaspiro[3.4]octan-1-yl)prop-2-en-1-one] | 50 to 100 | 50 to 100
13 | C=CC(=O)N1C2COCC1CC(c1ccc3ncnc(Nc4ccc(Oc5ccc6c(c5)nnn6C)c(C)c4)c3n1)C2 (stereo not shown) [Compound 396, 1-(7-(4-((3-methyl-4-((1-methyl-1H-benzo[d][1,2,3]triazol-5-yl)oxy)phenyl)amino)pyrido[3,2-d]pyrimidin-6-y1)-3-oxa-9-azabicyclo[3.3.1]nonan-9-yl)prop-2-en-1-one trifluoroacetate] | 50 to 100 | 100 to 500
14 | C=CC(=O)N(C)[C@@H]1CCCN(c2ncc3ncnc(Nc4ccc(Oc5ccc6c(c5)nnn6C)c(C)c4)c3n2)C1 [Compound 129, (R)-N-methyl-N-(1-(8-((3-methyl-4-((1-methyl-1H-benzo[d][1,2,3]triazol-5-yl)oxy)phenyl)amino)pyrimido[5,4-d]pyrimidin-2-y1)piperidin-3-yl)acrylamide] | 50 to 100 | 100 to 500
15 | C=CC(=O)N[C@@H]1CCCN(c2ccc3ncnc(Nc4cc(C)c(Oc5ccc6c(c5)nnn6C)cc4OC)c3n2)C1 [Compound 274, (R)-N-(1-(4-((2-methoxy-5-methyl-4-((1-methyl-1H-benzo[d][1,2,3]triazol-5-yl)oxy)phenyl)amino)pyrido[3,2-d]pyrimidin-6-yl)piperidin-3-yl)acrylamide] | 500 to 1000 | ≥ 1000
16 | C=CC(=O)N1CCN(c2ncc3ncnc(Nc4ccc(Oc5ccc6c(nnn6C)c5F)c(C)c4)c3n2)CC1 [Compound 191, 1-(4-(8-((4-((4-fluoro-1-methyl-1H-benzo[d][1,2,3]triazol-5-yl)oxy)-3-methylphenyl)amino)pyrimido[5,4-d]pyrimidin-2-yl)piperazin-1-yl)prop-2-en-1-one] | 50 to 100 | 50 to 100
17 | C=C(COC)C(=O)NC1CCN(c2ncc3ncnc(Nc4ccc(Oc5ccc6c(c5)nnn6C)c(C)c4)c3n2)CC1 [Compound 212, 2-(methoxymethyl)-N-(1-(8-((3-methyl-4-((1-methyl-1H-benzo[d][1,2,3]triazol-5-yl)oxy)phenyl)amino)pyrimido [5,4-d]pyrimidin-2-yl)piperidin-4-yl)acrylamide] | 50 to 100 | 100 to 500
18 | C=CC(=O)N1CCN(c2ncc3ncnc(Nc4ccc(Oc5cc6ncn(C)c6nc5C)c(C)c4)c3n2)CC1 [Compound 135, 1-(4-(8-((4-((3,5-dimethyl-3H-imidazo[4,5-b]pyridin-6-yl)oxy)-3-methylphenyl)amino)pyrimido[5,4-d]pyrimidin-2-yl)piperazin-1-yl)prop-2-en-1-one] | 50 to 100 | 100 to 500
19 | C=CC(=O)N1CCC[C@H](N(C)c2ncc3ncnc(Nc4ccc(Oc5ccc6c(c5)nnn6C)c(C)c4)c3n2)C1 [Compound 224, (S)-1-(3-(methyl(8-((3-methyl-4-((1-methyl-1H-benzo[d][1,2,3]triazol-5-yl)oxy)phenyl)amino)pyrimido[5,4-d]pyrimidin-2-yl)amino)piperidin-1-yl)prop-2-en-1-one] | 50 to 100 | 100 to 500
20 | C=CC(=O)NC1CC2(C1)CN(c1ncc3ncnc(Nc4ccc(Oc5ccc6c(c5)nnn6C)c(C)c4)c3n1)C2 [Compound 225, N-(2-(8-((3-methyl-4-((1-methyl-1H-benzo[d][1,2,3]triazol-5-yl)oxy)phenyl)amino)pyrimido[5,4-d]pyrimidin-2-yl)-2-azaspiro[3.3]heptan-6-yl)acrylamide] | 100 to 500 | 500 to 1000
21 | C=CC(=O)N1CCN(c2ccc3ncnc(Nc4ccc(Oc5ccc6c(c5)nnn6C)c(C)c4)c3n2)C[C@H]1C(C)C [Compound 297, (R)-1-(2-isopropyl-4-(4-((3-methyl-4-((1-methyl-1H-benzo[d][1,2,3]triazol-5-yl)oxy)phenyl)amino)pyrido[3,2-d]pyrimidin-6-yl)piperazin-1-yl)prop-2-en-1-one] | 50 to 100 | 100 to 500
22 | C=CC(=O)N1C[C@@H](N(C)c2ccc3ncnc(Nc4ccc(Oc5ccc6c(c5)nnn6C)c(C)c4)c3n2)C[C@H]1C [Compound 351, 1-((2R,4S)-2-methyl-4-(methyl(4-((3-methyl-4-((1-methyl-H-benzo[d][1,2,3]triazol-5-yl)oxy)phenyl)amino)pyrido[3,2-d]pyrimidin-6-yl)amino)pyrrolidin-1-yl)prop-2-en-1-one] | 100 to 500 | 500 to 1000
23 | C=CC(=O)N1CCCN(c2ccc3ncnc(Nc4cc(C)c(Oc5ccc6c(c5)nnn6C)cc4OC)c3n2)CC1 [Compound 264, 1-(4-(4-((2-methoxy-5-methyl-4-((1-methyl-1H-benzo[d][1,2,3]triazol-5-yl)oxy)phenyl)amino)pyrido[3,2-d]pyrimidin-6-yl)-1,4-diazepan-1-yl)prop-2-en-1-one] | 500 to 1000 | 500 to 1000
